Laboratory results: article PMC3499775 (Journal of pharmaceutical and biomedical analysis, 2012)

molecular target: T1, breast cancer resistance protein (BCRP) (Homo sapiens, UniProt Q9UNQ0); assay: frontal displacement affinity chromatography; format: binding; conditions: nmac-bcrp column
T1 sequence (Q9UNQ0 1-655): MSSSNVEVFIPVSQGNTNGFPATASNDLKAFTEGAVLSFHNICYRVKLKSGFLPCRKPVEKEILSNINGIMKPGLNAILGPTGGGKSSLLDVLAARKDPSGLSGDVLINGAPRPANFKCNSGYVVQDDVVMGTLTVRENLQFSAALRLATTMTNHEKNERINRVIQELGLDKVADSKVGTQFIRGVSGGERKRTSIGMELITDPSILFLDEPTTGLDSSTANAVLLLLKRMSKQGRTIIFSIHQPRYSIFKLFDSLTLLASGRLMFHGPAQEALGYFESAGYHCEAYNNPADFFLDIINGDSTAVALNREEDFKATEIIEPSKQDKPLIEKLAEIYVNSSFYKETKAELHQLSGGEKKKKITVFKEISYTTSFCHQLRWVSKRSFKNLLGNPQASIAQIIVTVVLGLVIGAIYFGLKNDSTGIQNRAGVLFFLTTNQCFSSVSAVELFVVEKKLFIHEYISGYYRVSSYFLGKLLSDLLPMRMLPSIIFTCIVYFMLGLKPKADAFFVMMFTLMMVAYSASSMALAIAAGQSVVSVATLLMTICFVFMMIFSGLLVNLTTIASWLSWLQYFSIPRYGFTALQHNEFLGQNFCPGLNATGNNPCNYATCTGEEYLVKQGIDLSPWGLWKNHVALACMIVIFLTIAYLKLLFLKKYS

| Compound | Kd |
| --- | --- |
| COc1ccc(-c2coc3cc(O)cc(O)c3c2=O)cc1 [Biochanin A] | 1050 nM |
| COc1cc([C@@H]2c3cc4c(cc3[C@@H](O[C@@H]3O[C@@H]5CO[C@@H](C)O[C@H]5[C@H](O)[C@H]3O)[C@H]3COC(=O)[C@H]23)OCO4)cc(OC)c1O [Etoposide] | 4550 nM |
| COc1ccc2c3c([nH]c2c1)[C@H](C=C(C)C)N1C(=O)[C@@H]2CCCN2C(=O)[C@@H]1C3 [FTC, Fumitremorgin C] | 1630 nM |
